Test: molar heat capacity at saturation pressure
Details: Large sample (1 g) DSC

C1C2CC3CC1CC(C14CC5CC(CC(C5)C1)C4)(C2)C3 [1,1'-biadamantane]
Details	molar heat capacity [J/K/mol]
368.9 K, Crystal 2	422.5
372.5 K, Crystal 2	428.1
376.1 K, Crystal 2	435.3
379.7 K, Crystal 2	439.7
383.3 K, Crystal 2	443.1
386.9 K, Crystal 2	448.3
390.4 K, Crystal 2	452.1
394 K, Crystal 2	456.9
397.6 K, Crystal 2	460.5
401.2 K, Crystal 2	466.4
404.8 K, Crystal 2	471.7
408.4 K, Crystal 2	471.9
412 K, Crystal 2	478.1
415.6 K, Crystal 2	481.4
419.2 K, Crystal 2	490.8
422.8 K, Crystal 2	493.1
426.4 K, Crystal 2	496.1
430 K, Crystal 2	501.3
433.6 K, Crystal 2	507.8
437.1 K, Crystal 2	513
440.7 K, Crystal 2	519.9
444.3 K, Crystal 2	525
447.9 K, Crystal 2	529.9
451.5 K, Crystal 2	537.9
455.1 K, Crystal 2	544.8
458.7 K, Crystal 2	549.6
462.3 K, Crystal 2	556.8
465.9 K, Crystal 2	563.6
469.5 K, Crystal 2	572.6
473 K, Crystal 2	579.1
476.6 K, Crystal 2	584.1
480.2 K, Crystal 2	587.8
483.8 K, Crystal 2	600.3
487.4 K, Crystal 2	611.9
491 K, Crystal 2	607.2
494.6 K, Crystal 2	617.9
495.5 K, Crystal 2	621.1
496.4 K, Crystal 2	621.4
497.3 K, Crystal 2	621.7
498.1 K, Crystal 2	626.7
499 K, Crystal 2	629.7
499.9 K, Crystal 2	632.7
500.8 K, Crystal 2	635.2
501.7 K, Crystal 2	637.1
502.6 K, Crystal 2	636.9
503.5 K, Crystal 2	639
504.4 K, Crystal 2	644.5
505.3 K, Crystal 2	647.9
506.2 K, Crystal 2	659.8
507 K, Crystal 2	693.8
507.9 K, Crystal 2	741.7
508.7 K, Crystal 2	773.6
509.6 K, Crystal 1	792.3
510.6 K, Crystal 1	763.7
511.5 K, Crystal 1	724.5
512.4 K, Crystal 1	700.9
513.3 K, Crystal 1	684.2
514.2 K, Crystal 1	674.9
515.2 K, Crystal 1	668.9
516.1 K, Crystal 1	662.2
517 K, Crystal 1	655.5
517.9 K, Crystal 1	658.8
518.8 K, Crystal 1	647.2
519.7 K, Crystal 1	637.1
520.6 K, Crystal 1	640.5
522.4 K, Crystal 1	641.1
523.3 K, Crystal 1	647.5
524.2 K, Crystal 1	653.8
525.1 K, Crystal 1	653.9
526.8 K, Crystal 1	660.2
527.7 K, Crystal 1	653
528.6 K, Crystal 1	663.2
529.5 K, Crystal 1	664.4
530.4 K, Crystal 1	664.4
531.3 K, Crystal 1	663.3
532.2 K, Crystal 1	664.8
533.1 K, Crystal 1	667.8
534 K, Crystal 1	666.7
534.9 K, Crystal 1	674.5
535.8 K, Crystal 1	671
536.7 K, Crystal 1	671.7
537.6 K, Crystal 1	675
538.5 K, Crystal 1	681.1
539.4 K, Crystal 1	676.6
540.3 K, Crystal 1	677
543.1 K, Crystal 1	681.3
544.9 K, Crystal 1	692.5
546.7 K, Crystal 1	693.7
548.5 K, Crystal 1	702.1
550.3 K, Crystal 1	709.8
552.1 K, Crystal 1	724.2
553.9 K, Crystal 1	741
555.7 K, Crystal 1	752.9
557.4 K, Crystal 1	744.3
559.2 K, Crystal 1	772.6
561 K, Crystal 1	802.7
